Measured values reported in patent US8394398B2 (Abbott Laboratories, priority 1997, dated 2013).
Where two headings read alike, the source gives them in different places.

Assays:
[1] = system: human coronary artery endothelial cells (hCaEC); experiment: cytokine production by TNFα-treated human coronary artery endothelial cells (ELISA); type: cell-based; settings: TNFα (5 ng/ml), 24 hours
Protocol: Experiments were performed to determine the effects of zotarolimus, sirolimus and dexamethasone on the production of TNFα, IL-6 and MCP-1 by activated human monocytes In addition to monocytes and macrophages two other key cell types are involved in the etiology of restenosis, arterial smooth muscle and endothelial cells. These cells are activated and produce cytokines in response to TNFα. […] The activation of cytokine production by human coronary artery smooth muscle and endothelial cells following TNFα treatment was determined by measuring interleukine-8 (IL-8), MCP-1 and IL-6 production. As shown by the results of the experiments described below, the ability of these compounds to inhibit the production of cytokines supports their use in combination as anti-restenotic agents since these cytokines play a role in the development of restenosis. […] After 24 hours, the supernatants were carefully collected and TNFα, IL-6 and MCP-1 levels determined by ELISA. Primary cultures of human coronary artery endothelial and smooth muscle cells were obtained from Cambrex and maintained as described by the vendor. […] After 24 hours the supernatants were removed and replaced with media containing TNFα (5 ng/ml) in the presence and absence of various concentrations of zotarolimus, dexamethasone or sirolimus. The cells were incubated for 24 hours and the supernatants carefully removed and frozen until measurement. Cytokine levels were measured in the supernatants by sandwich ELISA.

[2] = Phase 1 single escalating intravenous dose study, safety and pharmacokinetics; type: in vivo, human; settings: for C5 / concentration at 5 min: concentration at 5 minutes; for concentration at 5 min: male, human, whole blood, read-out: C5
Protocol: In the present, first-time-in-man study, the safety and pharmacokinetics of zotarolimus were investigated following intravenous bolus administration of zotarolimus over a 100 to 900 μg dose range. The intravenous bolus dose administration would mimic the most rapid unexpected release of zotarolimus from drug-coated stents in vivo.
This was a Phase 1, single escalating dose, double-blind, randomized, placebo-controlled, single-center study. Sixty (60) adult healthy males were divided into 5 IV dose groups of 100, 300, 500, 700, and 900 μg.
Subjects were randomly assigned to receive a single intravenous dose of zotarolimus or a matching intravenous placebo under fasting conditions, as shown in the dosing scheme shown in Table 9.
Higher doses were administered after evaluating the safety data from the preceding lower dose groups. The treatment groups were separated by at least 7 days. For safety reasons, each treatment group was divided into two cohorts of six subjects and the doses of the two cohorts of a group were separated by at least 1 day.
Doses were administered as IV bolus over 3 minutes, with 8 subjects. Four subjects received zotarolimus and 4 subjects received placebo in each dose group. Blood was sampled for 168 hours and concentrations of zotarolimus measured using LC-MS/MS with a LOQ of 0.20 ng/mL
Seven (7)-mL blood samples were collected by venipuncture into evacuated collection tubes including edetic acid (EDTA) prior to dosing (0 hour) and at 0.083 (5 min), 0.25, 0.5, 1, 2, 4, 8, 12, 16, 24, 36, 48, 72, 96, 120, 144, and 168 hours after dosing on Study Day 1.
Blood concentrations of zotarolimus were determined using a validated liquid/liquid extraction HPLC tandem mass spectrometric method LC-MS/MS). […] AU calibration curves had coefficient of determination (r^2) values greater than or equal to 0.9923.
Safety was evaluated based on adverse event, physical examination, vital signs, ECG, injection site and laboratory tests assessments.
Pharmacokinetic parameter values of zotarolimus were estimated using noncompartmental methods.
To investigate the questions of dose proportionality and linear pharmacokinetics, an analysis of covariance (ANCOVA) was performed. Subjects were classified by dose level, and body weight was a covariate. The variables analyzed included β, Vdβ, dose-normalized C5, and logarithms of dose-normalized AUC0-last and dose-normalized AUC0-inf. The primary test of the hypothesis of invariance with dose was a test on dose-level effects with good power for a monotonic function of dose. In addition, the highest and lowest dose levels were compared within the framework of the ANCOVA.

[3] = 100 μg single IV bolus, healthy males, blood
[4] = 300 μg single IV bolus, healthy males, blood
[5] = 500 μg single IV bolus, healthy males, blood
[6] = 700 μg single IV bolus, healthy males, blood
[7] = 900 μg single IV bolus, healthy males, blood

SMILES: CO[C@H]1C[C@@H]2CC[C@@H](C)[C@@](O)(O2)C(=O)C(=O)N2CCCC[C@H]2C(=O)O[C@H]([C@H](C)C[C@@H]2CC[C@H](n3cnnn3)[C@H](OC)C2)CC(=O)[C@H](C)/C=C(\C)[C@@H](O)[C@@H](OC)C(=O)[C@H](C)C[C@H](C)/C=C/C=C/C=C/1C [zotarolimus]
- Maximal Inhibitory Activity, IL-6 [1]: − (− indicates maximal inhibitory activity less than 50% of control)
- Maximal Inhibitory Activity, Il-8 [1]: − (− indicates maximal inhibitory activity less than 50% of control)
- Maximal Inhibitory Activity, MCP-1 [1]: − (− indicates maximal inhibitory activity less than 50% of control)
- C5 [2, 3]: 13.48 ng/mL
- C5 [2, 4]: 36.71 ng/mL
- C5/Dose [2, 5]: 0.11 ± 0.0005 ng/mL/µg
- β (elimination rate constant) [2, 5]: 0.017 ± 0.003 h⁻¹
- CL [2, 6]: 3.18 L/h
- C5 [2, 6]: 88.73 ng/mL
- C5 [2, 7]: 110.78 ng/mL
- concentration at 5 min [2, 3]: 13.5 ± 2.87 ng/mL
- concentration at 5 min [2, 4]: 36.7 ± 9.82 ng/mL
- concentration at 5 min [2, 6]: 88.7 ± 5 ng/mL
- concentration at 5 min [2, 7]: 111 ± 15.9 ng/mL
- tolerability ([2]; single IV doses of 100 to 900 μg, healthy males): well tolerated at all doses
- most common treatment-emergent adverse events ([2]; single IV doses of 100 to 900 μg, reported by two or more subjects in any one treatment group): injection site reaction and pain
- dose proportionality of pharmacokinetics ([2]; with respect to C5 and AUC0-inf, IV): dose-proportional over the 100-900 μg dose range
